Measured values: patent US5789434A, “Derivatives of substituted 4-biarylbutyric acid as matrix metalloprotease inhibitors” (priority 1995, dated 1998)

Tests used:
Format in all cases: biochemical
MMP-9 [1] = target: T1, MMP-9 (Homo sapiens, UniProt P14780); assay: Thiopeptilide MMP-9 Inhibition Assay; conditions: pH 6.5; x (n) = average of n determinations; read-out: MMP-9: Thiopep. IC50
T1 construct: from tissue; host or cells: human polymorphonuclear leukocytes (PMN) from whole blood (New York Blood Center), PMA-stimulated supernatant

MMP-3 = target: T2, MMP-3 (Homo sapiens, UniProt P08254); assay: Automated MMP Profiling Assay, MMP-3 fluorogenic; conditions: for IC50: 96-well automated, P218
T2 construct: Truncated Prostromelysin-257 was expressed in a soluble form in E.coli; made in house; host or cells: E. coli
Source text: This assay with each invention compound was run with the three enzymes MMP-3, MMP-9 and MMP-2 in parallel as adapted for a 96-well microtitre plate using a Hamilton A® workstation.

MMP-9 [2] = target: T1, MMP-9; assay: Automated MMP Profiling Assay, MMP-9 fluorogenic; conditions: for IC50: 96-well automated, P218
MMP-2 = target: T3, MMP-2 (Homo sapiens, UniProt P08253); assay: Automated MMP Profiling Assay, MMP-2 fluorogenic; conditions: 96-well automated, P218; read-out: MMP-2 Fluorogenic IC50 (profiling)
T3 sequence (P08253 110-660): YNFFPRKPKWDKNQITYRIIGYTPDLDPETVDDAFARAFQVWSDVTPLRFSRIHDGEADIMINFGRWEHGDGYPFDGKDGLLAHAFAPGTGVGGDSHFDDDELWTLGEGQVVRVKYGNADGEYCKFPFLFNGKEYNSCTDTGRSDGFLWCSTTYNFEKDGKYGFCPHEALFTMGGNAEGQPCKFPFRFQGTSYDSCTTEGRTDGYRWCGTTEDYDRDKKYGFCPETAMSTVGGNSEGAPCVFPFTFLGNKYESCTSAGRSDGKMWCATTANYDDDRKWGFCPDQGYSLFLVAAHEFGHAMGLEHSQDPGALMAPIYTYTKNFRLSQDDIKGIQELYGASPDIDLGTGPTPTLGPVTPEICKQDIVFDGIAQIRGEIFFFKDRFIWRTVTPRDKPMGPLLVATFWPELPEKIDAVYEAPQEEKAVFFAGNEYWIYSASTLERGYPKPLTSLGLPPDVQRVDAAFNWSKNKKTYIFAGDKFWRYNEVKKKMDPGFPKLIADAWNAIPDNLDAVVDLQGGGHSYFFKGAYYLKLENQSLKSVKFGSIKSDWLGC

T1 sequence (P14780 107-707 limits assumed): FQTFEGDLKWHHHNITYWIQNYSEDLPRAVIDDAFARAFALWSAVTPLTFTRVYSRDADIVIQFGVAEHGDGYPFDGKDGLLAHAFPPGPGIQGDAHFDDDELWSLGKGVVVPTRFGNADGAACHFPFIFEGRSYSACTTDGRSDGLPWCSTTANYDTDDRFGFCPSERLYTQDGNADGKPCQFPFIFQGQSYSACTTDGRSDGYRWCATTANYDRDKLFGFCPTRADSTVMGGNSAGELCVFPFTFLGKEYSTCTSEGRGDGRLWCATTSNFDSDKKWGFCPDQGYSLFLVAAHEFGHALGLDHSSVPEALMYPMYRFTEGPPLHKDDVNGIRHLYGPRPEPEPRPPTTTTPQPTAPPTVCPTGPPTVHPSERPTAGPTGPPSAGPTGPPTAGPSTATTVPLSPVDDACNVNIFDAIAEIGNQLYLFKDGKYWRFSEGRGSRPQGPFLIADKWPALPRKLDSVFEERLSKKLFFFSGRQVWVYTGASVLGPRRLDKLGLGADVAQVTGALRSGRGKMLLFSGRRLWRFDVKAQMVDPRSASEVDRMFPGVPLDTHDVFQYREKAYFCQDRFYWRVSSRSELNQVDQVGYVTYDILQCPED
T2 sequence (P08254 100-274 limits assumed): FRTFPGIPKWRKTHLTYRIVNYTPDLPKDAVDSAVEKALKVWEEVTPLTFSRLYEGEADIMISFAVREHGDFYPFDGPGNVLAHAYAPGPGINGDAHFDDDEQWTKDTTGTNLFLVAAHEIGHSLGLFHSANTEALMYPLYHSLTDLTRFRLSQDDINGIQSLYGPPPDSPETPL

O=C(O)[C@@H]1[C@@H](Sc2ccccc2)CC[C@H]1C(=O)c1ccc(-c2ccc(Cl)cc2)cc1 [Example 297, (1R,2S,5R)-trans-5-[4-(4-chlorophenyl)phenylcarbonyl]-trans-2-phenylthiocyclopentanecarboxylic acid]
IC50 (MMP-9 [1]): 640 nM
IC50 (MMP-3): 5750 nM
IC50 (MMP-9 [2]): 2370 nM
IC50 (MMP-2): 2070 nM

O=C(O)[C@H]1[C@H](CSc2ccccc2)CC[C@@H]1C(=O)c1ccc(-c2ccc(Cl)cc2)cc1 (relative stereo) [Example 373, Cyclopentanecarboxylic acid, 2-[(4'-chloro[1,1'-biphenyl]-4-yl)carbonyl]-5-[(phenylthio)methyl]-, (1α,2β,5β)-]
IC50 (MMP-3): 56 nM
IC50 (MMP-9 [2]): 113 nM
IC50 (MMP-2): 24 nM

C=CCOc1ccc(-c2ccc(C(=O)CC(CCCc3ccccc3)C(=O)O)cc2)cc1 (stereo not drawn) [Example 95, [1,1'-Biphenyl]-4-butanoic acid, γ-oxo-α-(3-phenylpropyl)-4'-(2-propenyloxy)-]
IC50 (MMP-3): 79 nM
IC50 (MMP-9 [2]): 77 nM
IC50 (MMP-2): 26 nM

CC(=O)Nc1ccc(-c2ccc(C(=O)CC(CCc3ccccc3)C(=O)O)cc2)cc1 (stereo not drawn) [Example 139, [1,1'-Biphenyl]-4-butanoic acid, 4'-(acetylamino)-γ-oxo-α-(2-phenylethyl)-]
IC50 (MMP-3): 5000 nM
IC50 (MMP-9 [2]): 5000 nM
IC50 (MMP-2): 323 nM

O=C(O)[C@H]1[C@H](COc2ccccc2)CC[C@@H]1C(=O)c1ccc(-c2ccc(Cl)cc2)cc1 (relative stereo) [Example 366, Cyclopentanecarboxylic acid, 2-[(4'-chloro[1,1'-biphenyl]-4-yl)carbonyl]-5-(phenoxymethyl)-, (1α,2β,5β)-]
IC50 (MMP-3): 22 nM
IC50 (MMP-9 [2]): 56 nM
IC50 (MMP-2): 6.7 nM

CC(=O)NC(CC(=O)c1ccc(-c2ccc(Cl)cc2)cc1)C(=O)O (stereo not drawn) [Example 430, [1,1'-Biphenyl]-4-butanoic acid, α-(acetylamino)-4'-chloro-γ-oxo-]
inhibition at 5 µM (MMP-3): 28%
inhibition at 5 µM (MMP-9 [2]): 37%
IC50 (MMP-2): 419 nM

O=C(O)[C@H]1[C@H](C(=O)c2ccc(-c3ccc(Cl)cc3)cc2)[C@H]2C=C[C@@H]1C2 (relative stereo) [Example 176, Bicyclo[2.2.1]hept-5-ene-2-carboxylic acid, 3-[(4'-chloro[1,1'-biphenyl]-4-yl)carbonyl]-, (2-endo-,3-exo)-]
inhibition at 5 µM (MMP-3): 26%
inhibition at 5 µM (MMP-9 [2]): 24%
IC50 (MMP-2): 2000 nM

O=C(O)[C@H]1[C@@H](Sc2ccccc2)CC[C@@H]1C(=O)c1ccc(-c2ccc(Cl)cc2)cc1 (relative stereo) [Example 313, Cyclopentanecarboxylic acid, 2-[(4'-chloro[1,1'-biphenyl]-4-yl)carbonyl]-5-(phenylthio)-, (1α,2β,5α)-]
IC50 (MMP-3): 3330 nM
inhibition at 5 µM (MMP-9 [2]): 20%
IC50 (MMP-2): 2780 nM

CCCCC#Cc1ccc(-c2ccc(C(=O)CC(CCCc3ccccc3)C(=O)O)cc2)cc1 (stereo not drawn) [Example 352, [1,1'-Biphenyl]-4-butanoic acid, 4'-(1-hexynyl)-γ-oxo-α-(3-phenylpropyl)-]
IC50 (MMP-3): 130 nM
IC50 (MMP-9 [2]): 905 nM
IC50 (MMP-2): 61 nM

COc1cc(CCC(CC(=O)c2ccc(-c3ccc(Cl)cc3)cc2)C(=O)O)cc(OC)c1 (stereo not drawn) [Example 129, [1,1'-Biphenyl]-4-butanoic acid, 4'-chloro-α-[2-(3,5-dimethoxyphenyl)ethyl]-γ-oxo-]
IC50 (MMP-3): 237 nM
IC50 (MMP-9 [2]): 771 nM
IC50 (MMP-2): 89 nM

CC(=O)O[C@H]1C[C@@H](C(=O)c2ccc(-c3ccc(Cl)cc3)cc2)[C@H]1C(=O)O (relative stereo) [Example 393, Cyclobutanecarboxylic acid, 2-(acetyloxy)-4-[(4'-chloro[1,1'-biphenyl]-4-yl)carbonyl]-, (1α,2α,4α)-]
inhibition at 5 µM (MMP-3): 18%
inhibition at 5 µM (MMP-9 [2]): 38%
IC50 (MMP-2): 2000 nM
